The record followed here is the METLIN SMRT retention time set (Domingo-Almenara et al. 2019).

This data set can be described thus: gradient 5% acetonitrile 3 min, to 50% in 2 min, to 85% in 15 min, held 3 min, 100 µL/min. The note with it: column: Zorbax Extend-C18 2.1 x 50 mm; eluents: water / acetonitrile, 0.1% formic acid. A digest of the protocol:
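Standards, all pure, were combined into mixtures of ~100 molecules and run at 100 μL/min on a Zorbax Extend-C18 column (2.1 × 50 mm, 1.8 μm) with water and acetonitrile, each containing 0.1% formic acid. A coupled quadrupole time-of-flight mass spectrometer operated in positive and negative ionization mode. Retention time values come from computationally picked adduct peaks, each inspected manually.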
With `CNC(=O)c1sc2nc(-c3cccc(F)c3)c(NCCOC)n2c1C`, the RP-LC retention time was 734 s. `O=C(Cn1cnc2c(sc3nc(-c4ccccc4)ccc32)c1=O)NCc1ccc(F)cc1`: the RP-LC retention time turned out to be 982 s.

`O=C(CN1C(=O)c2ccccc2Sc2ncccc21)N1CCC(N2CCCCC2)CC1` returned an RP-LC retention time of 583 s.

Molecule `Cc1cc(C)cc(S(=O)(=O)N2CCC(c3nc(C(=O)N4CCCC4)c(C)o3)CC2)c1` returned an RP-LC retention time of 1010 s. Under `O=C(Nc1cc(-c2ccsc2)no1)c1ccc(Cl)s1` stands 1030 s; under `Cc1cnc(C2CN(Cc3ccc(C(F)(F)F)cc3)C2)n1Cc1ccccc1`, 639 s. The value for `NC(=O)C(=O)c1cn(Cc2ccc(F)cc2)c2ccccc12` was 811 s; that for `CSc1ccc(CNC(=O)C2CCCN(c3ccc(=O)n(-c4ccc(C)c(Cl)c4)n3)C2)cc1` (centres undefined) was 1010 s; that for `COc1ccccc1N1CCN(C(=O)C2CCN(c3ncnc4c3oc3ccccc34)CC2)CC1` was 765 s. `Cc1cc(C(=O)N2CC(C(=O)Nc3cccc(-c4csc(C)n4)c3)C2)no1`: the RP-LC retention time came to 721 s. Under `CC(C)n1cnc(S(=O)(=O)N2CCC(C(=O)N3CCN(c4ccccc4)CC3)CC2)c1` stands 754 s; under `O=C(Nc1ccc2c(c1)OCCO2)C1CCN(c2cc(N3CCSCC3)ncn2)CC1`, 662 s. Under `Cn1cc(-c2cc3n(n2)CCC(=O)N3CC(=O)NCC2COCCO2)c2ccccc21` (centres undefined) stands 667 s; under `CCOC(=O)c1nc(NCc2cc(OC)ccc2OC)c2ccccc2n1`, 768 s. Under `O=C1[C@H]2CN(Cc3ccccc3)C[C@H]2C(=O)N1CCc1ccccc1` stands 713 s; under `Cc1sc2ncnc(N3CCCC(C)C3)c2c1C(=O)Nc1cccc(F)c1C` (centres undefined), 1300 s.

In the case of `COCCOC1CCC12CCN(S(=O)(=O)c1ccccc1C)CC2` (centres undefined), the RP-LC retention time is 983 s. In the case of `CN1CCN(C(CNC(=O)c2ccc3nsnc3c2)c2ccc(F)cc2)CC1` (centres undefined), the RP-LC retention time turned out to be 567 s. The value for `COc1ccccc1N1CCN(CC(O)COc2cccc3ccccc23)CC1` (centres undefined) was 838 s; that for `Cc1cccc(C2(O)C(=O)N(Cc3ccc(C#N)cc3)c3ccccc32)c1` (centres undefined) was 825 s. Molecule `Cc1nc(-c2csc(S(=O)(=O)N3CCC(C(=O)NCc4ccccc4)CC3)c2)no1` had an RP-LC retention time of 844 s. Under `O=C(c1ccc(F)c(F)c1)N1CCC(n2c(-c3ccoc3)nc3cccnc32)C1` (centres undefined) stands 745 s; under `CC1(c2noc(C3CC3)n2)CCN(C(=O)CCc2cc(Cl)no2)CC1`, 853 s; under `CC(C)c1cc(C(=O)Nc2ccccc2F)no1`, 1020 s. The molecule `Cc1ccccc1Nc1c(-c2cccc(Br)c2)nc2ccc(Cl)cn12` displayed an RP-LC retention time of 1100 s. Under `Cc1oc(C2CCN(S(=O)(=O)c3ccc(C#N)cc3)CC2)nc1C(=O)N1CCOCC1` stands 760 s; under `O=C(NCc1ccco1)c1nc(Nc2ccc(F)cc2)c2ccccc2n1`, 779 s. Under `Cc1ccc(CNC(=O)Cn2cc(C(=O)N3CCCC3)c(=O)c3ccc(C)nc32)cc1` stands 694 s; under `O=C(NC1CC(=O)N(C2CC2)C1)c1cc2ccccc2[nH]1` (centres undefined), 638 s; under `O=C(Nc1nc2c(s1)COc1ccccc1-2)C1COc2ccccc2O1` (centres undefined), 980 s.

As to `COc1ccc(NC(=O)N2CCC3(CC2)NC(=O)c2ccccc2N3C)cc1`, the RP-LC retention time stood at 700 s. The value for `CC(C)c1ccc(S(=O)(=O)N(CCN2CCCCC2C)CC(=O)N2CCNCC2)cc1` (centres undefined) was 610 s. The value for `COC(=O)c1c(C)[nH]c(C(=O)N2CCC(CC(=O)NC(C)C)CC2)c1C` was 663 s; that for `Cc1cccc(NS(=O)(=O)c2ccc(-c3nnc(C4CCC4)o3)o2)c1C` was 949 s. `CCn1cc(-c2nc(CC(=O)N3CCc4ccccc43)cs2)c2cccnc21` registered an RP-LC retention time of 954 s. Under `N#Cc1ccc(-c2nc(-c3ccc4c(c3)nnn4CCC(=O)N3CCCC3)no2)c(F)c1` stands 849 s; under `CC(C)n1c(=O)c2ccccc2n(Cc2nc(-c3cccc(Cl)c3)no2)c1=O`, 1190 s; under `Cc1cnc(-c2ccccc2)n1CCNS(=O)(=O)c1ccccc1`, 629 s.

The molecule `CCOC(=O)C1CCN(C(=O)c2sc(-c3cn(C(C)C)c4ncccc34)nc2C)CC1` showed an RP-LC retention time of 961 s.

`O=C(NC1CC1)c1ccc2ncnc(N3CCCCC3)c2c1` had an RP-LC retention time of 580 s. Under `CCn1c(=O)c2ccn(CC(=O)Nc3ccc4c(c3)OCCO4)c2n(CC)c1=O` stands 701 s; under `Cc1ncc([N+](=O)[O-])n1CCOC(=O)c1ccc(F)cc1`, 732 s; under `Oc1ccc(-c2csc(Nc3ccccn3)n2)cc1O`, 621 s. Under `COc1ccc(-c2noc(-c3nnn4c3COC(c3ccc(C)cc3C)C4)n2)c(OC)c1` (centres undefined) stands 1170 s; under `O=C(NCc1ccccc1C(F)(F)F)C1CCCN(c2ncnc3c2oc2ccccc23)C1` (centres undefined), 861 s; under `Cc1cccc(N(C)C(=O)Cn2c(=O)n(-c3cccc(C)c3)c(=O)c3c2cc(C)n3C)c1`, 752 s. Under `O=C(Nc1ccc(-c2nc3cccnc3s2)cc1)c1ccccc1Cl` stands 893 s; under `O=C(c1cnc2ccccc2n1)N1CCN(Cc2ccsc2)CC1`, 556 s.

The molecule `CCC(=O)Nc1cc2c(cc1Sc1ccc(C)cc1)n(C)c(=O)n2C` returned an RP-LC retention time of 893 s.

`COc1ccc(NC(=O)C2CN(S(=O)(=O)C3CC3)CC23CCCCC3)c(OC)c1` (centres undefined) showed an RP-LC retention time of 961 s. Under `Cc1ccccc1CN1N=C(C(=O)N2CCC(C)CC2)S(=O)(=O)c2ccccc21` stands 1050 s; under `O=C(Cn1c(=O)oc2ccccc21)NCc1n[nH]c(=O)c2ccccc12`, 595 s. `Cc1ccc(-c2nc(-c3ccc4c(c3)oc(=O)n4C)no2)cc1` had an RP-LC retention time of 1120 s. `C=CC(C)(C)c1cc(/C=C/C(=O)c2ccc(O)cc2)c(OC)cc1O`: the RP-LC retention time is 903 s. The value for `Cc1ccc(-c2csc(Nc3ccc(Br)cn3)n2)c(C)c1` was 1330 s; that for `Cc1nc2c(NC(=O)c3cccs3)cccn2n1` was 690 s. Consider `CCn1ccc(-c2nc(-c3ccc4c(c3)nnn4CCN3CCCCC3)no2)n1`, for which the RP-LC retention time turned out to be 623 s. On to `COc1cccc2c1OC1(C)CC2C(S(=O)(=O)c2ccc(C(C)C)cc2)C(=O)N1` (centres undefined), for which the RP-LC retention time was 938 s. `Cc1cc(N2CCCC2)n2nc(CN3CCN(c4ccccc4)CC3)nc2n1` returned an RP-LC retention time of 600 s. The value for `O=C(c1ccc2c(c1)OCO2)N1CCCCC1` was 722 s; that for `CCc1cc(C(=O)Nc2ccc(C)cc2C)nc2ccnn12` was 1090 s.

With `COc1ccc(-c2nnc(SCc3cc(=O)n4ccsc4n3)o2)cc1`, the RP-LC retention time was found to be 722 s. The molecule `CCOc1cc(C(=O)NC2CCN(c3cc(-c4ccc(Cl)cc4)[nH]n3)C2)cc(OCC)c1OCC` (centres undefined) returned an RP-LC retention time of 927 s. The value for `Cc1ccc(NS(=O)(=O)c2cc3c(s2)CCN(C(=O)C2CC2)C3)cc1C` was 861 s; that for `CC1=C(c2ccc(C)cc2)S(=O)(=O)N=C1N1CCCN(C(=O)NC2CCCC2)CC1` was 857 s. Under `CCN(Cc1ccccc1)C(=O)CN1C(=O)C2CCCCN2c2ccc(C(=O)N3CCCC3)cc21` (centres undefined) stands 892 s. The value for `Cc1ccc(-n2ccc(=O)c(-c3nc(-c4cccc(F)c4)no3)n2)cc1` was 928 s. Consider `CCC(C)NC(=O)C1CCN(S(=O)(=O)c2c(C)[nH]c(C)c2C(=O)N2CCCCC2)CC1` (centres undefined), for which the RP-LC retention time was found to be 672 s. Under `Cc1cc(C)n(-c2ccc(=O)n(CCNC(=O)c3cc(C)on3)n2)n1` stands 640 s; under `COCC1CCN(C(=O)C2CCN(c3cnn(Cc4ccccc4)c(=O)c3)CC2)CC1`, 727 s. Regarding `Cc1cccc(-c2noc(-c3nnn4c3COC(c3ccc(F)cc3)C4)n2)c1` (centres undefined), the RP-LC retention time came to 1210 s. `CC1CCCCN1S(=O)(=O)c1ccc2c(c1)CCC(=O)N2CC(=O)NCc1ccc(N(C)C)cc1` (centres undefined) registered an RP-LC retention time of 676 s. Under `CCNC(=O)c1cc(N2CCCC2)nc2c(C)cccc12` stands 702 s; under `Cc1cc(C)cc(-n2ccnc(NC(=O)Nc3ccc(F)c(Cl)c3)c2=O)c1`, 1150 s. Take `CCSc1nc2ccc(NS(=O)(=O)c3ccc4c(c3)CCC4)cc2s1`: the RP-LC retention time was 1110 s.

Take `Cc1nn(C)c(C)c1CCNC(=O)Nc1cccc(Br)c1`: the RP-LC retention time was found to be 677 s. The value for `Cc1ccc(CNC(=O)CN2CCN(C(=O)Nc3ccc(Cl)cc3)CC2=O)o1` was 725 s; that for `CCOC(=O)c1[nH]c(C)c(C(=O)C(C)N(C(=O)c2ccc(F)cc2)C2CC2)c1C` (centres undefined) was 890 s. Under `CC(C)c1nnc(NC(=O)c2cc(Cl)ccc2Cl)s1` stands 828 s.
